In patent US20140163082A1, “PYRAZOLYL COMPOUNDS FOR USE IN REVERSING REACTIVE GLIOSIS” (priority 2011, published 2014):

Assays:
[1] = tested on: hRMVECs cocultured with rMC-1 cells; assay: Cell migration in a co-culture system model (transwell); format: cell-based, human; settings: rMC-1 cells treated with YC-1 100 μM, normoxic and hypoxic conditions
Description: Migration assay of hRMVECs was carried out using the transwell insert with […] pore size. The inserts were coated with Extracellular matrix [ECM] [Millipore, Billerica, Mass.] and airdry up. Chemotaxis was induced by the control r-MClcells or the r-MC1 cells that were treated with YC-1 [100 μM], which were situated in the lower compartment. hRMVECs suspension [final concentration, 5×10^4 cells/well] was added to the upper compartment [FIG. 7B]. After incubated for 24 hours, the filters were washed and then fixed and stained with crystal violet [0.5% crystal violet and 20% methanol] for 30 min at room temperature. The filters were washed with distilled water, and the cells on the upper surface of the inserts were wiped with a cotton swab. The number of cells per field that migrated to the lower surface of the filters was determined microscopically. Five randomly chosen fields were counted per filter. Data were presented as a number of migrated cells [**P<0.01].

[2] = tested on: retinal NV in OIR mouse model; format: in vivo
Description: (§1) Retinal NV was induced in newborn mice as described previously. Briefly, P7 mice were exposed with their nursing mother, for 5 days [between P7 and P12] to hyperoxic conditions, by incubating them in an airtight chamber [PROOX 110 chamber O2 controller; Biospherix Ltd., Redfield, N.Y.] ventilated by a mixture of O2 and air to a final oxygen fraction of 75±2%. These incubation conditions induced vaso-obliteration and subsequent cessation of vascular development in the capillary beds of the central retina. At P12, the mice were allowed to recover in normal room air conditions and maintained for another 5 days [till P17], the day in which peak disease occurs. A condition of relative hypoxia resulted between P12 and P17, and extensive retinal NV developed in 100% of the mice. Age-matched animals with the hyperoxia-exposed groups were maintained identically, except they were exposed to room air […], 79% N2] for the entire duration of the experiment. All animals were examined and sacrificed on the same days.
(§2) A group of hyperoxia-exposed animals [n=15] were injected intravitreally [into both eyes] at P12 and P15 with 3 μl of YC-1 [100 μM] [drug-treated group]. Another group of hyperoxiaexposed mice [n=15] were injected intravitreally [into both eyes] at P12 and P15 with 3 μl of DMSO [0.2% [v/v]] [mock-treated group]. Non-treated mice grown under ambient conditions, non-treated hyperoxia-exposed mice, DMSO-treated hyperoxia-exposed mice and YC-1-treated hyperoxia-exposed mice, were all examined at different critical time points for qualitative assessment of the retinal vasculature by fluorescein angiography.
Deep anesthesia was induced by intraperitoneal injection of ketamine [1%], xylazine [0.1%], and sodium chloride [0.9%] in a concentration of 0.1 mL/10 g mouse body weight. Sternotomy was performed, the mice were perfused through the left ventricle with 600 μL of high-molecular-mass [2×106 Da] FITC-dextran in PBS [50 mg/ml], which was allowed to circulate for 2 minutes before the animals were euthanatized and the eyes enucleated and the flat mounts were prepared. Subsequent to retinal extraction, all retinas were fixed in 4% paraformaldehye for 24 hrs at 4° C. A dissecting microscope was used to dissect the cornea with a circumferential limbal incision, followed by removal of the lens and vitreous. Microscissors were used to make four radial incisions of the retinal eyecup in order to prepare retinal flat mounts on glass slides. Flat mounts were immersed in Aquamount mounting medium [Polysciences, Warrington, Pa.], coverslips were carefully placed over the retina, and the edges of the coverslips were sealed.
Images of the perfused retinas were captured with a fluorescence microscope [Zeiss Axiovert 135, Thornwood, N.Y.], and images were captured in a digital format in a 10× and 100× objectives using a digital camera [AxioCam, NY]. The extent of retinal NV was then quantified by Metamorph™ imaging software [Universal Imaging, Sunnyvale, Calif.]. Briefly, the entire retina was outlined to distinguish the total retinal area of each eye. Then, the images were thresholded to emphasize only the FITC-perfused vessels. This permitted the measurement of total BV area of each retina and the percentage of each retina that is engrossed with BVs. The entire mounted retinas were analyzed in a masked fashion [three observers] to minimize sampling bias. The total vascularized area was then normalized to the total retinal area and the percentage of the retina covered by vessels was calculated. The vascular area was quantified by setting a threshold level of fluorescence, above which only vessels were captured [density slicing]. The total surface area of the retina was outlined using the outermost vessel of the arcade near the ora serrata as the border. The central capillary dropout area was quantified from the digital images in masked fashion. […]

[3] = tested on: ischemic retinas; assay: Immunohistochemical analysis, in vivo (OIR retinas); design: species or system C57BL/6J mice; settings: OIR mice, vs DMSO-treated retinas
Description: as §1, §2
Mouse retinas were dissected and prepared for immunohistochemical analysis, fixed in 4% paraformaldehyde in 0.1 M PBS for 15 min at room temperature and embedded in paraffin, sectioned [5 μm]. Tissue sections were deparaffinized, hydrated, and later exposed to heat induced antigen retrieval using a microwave oven [three 5-minute cycles in citrate buffer, pH 6.0], endogenous peroxidase was abolished with methanol, and hydrogen peroxide and nonspecific background staining was blocked by incubating the tissue sections for 5 minutes in normal swine serum. Subsequently, all slides were washed three times in PBS, and incubated for 1 hour with primary anti-[HIF-1α, VEGF, PDGF-B, GFAP, iNOS, and β-actin] antibodies. The sections were washed with TBST and incubated with EnVision Polymer HRP secondary antibody [DAKO, Carpinteria, Calif.] for 30 minutes. All slides were stained with DAB solution and counterstained with hematoxylin. Slides were cover slipped [Permount; Fisher Scientific, Fairlawn, N.J.] and examined by light microscopy. Negative controls were performed by omitting the primary antibodies. Sections were photographed under a microscope [Zeiss Axiovert 135, Thornwood, N.Y.], and images were acquired a digital camera [AxioCam, N.Y.]. All retinas were examined at X60 objective. The staining intensity in our series ranged from a weak blush to moderate or strong. The amount of cells staining with the antibody was further categorized as focal [<10%], patchy [10%-50%], and diffuse [>50%]. For meaningful semiquantitative analysis, focal and/or weak staining was considered equivocal staining, and patchy or diffuse staining was either subcategorized as either moderate or strong staining. All Immunohistochemical analyses were measured by Metamorph digital image software [Molecular Devices, Sunnyvale, Calif.].

[4] = tested on: R28 cells

For OCc1ccc(-c2nn(Cc3ccccc3)c3ccccc23)o1 [YC-1, 3-(5′-hydroxymethyl-2′-furyl)-1-benzylindazole], the “rMC-1 cells-induced hRMVECs migration” value [1] was “significantly attenuated”, the “retinal vasodilation (vessel diameters)” value ([2]; OIR mice, dual injection P12 and P15, P17) was “inhibited oxygen-injury-induced vasodilation” and the “area of pre-retinal neovascular tufts” value ([2]; OIR mice, dual injection, P17, vs DMSO-treated group) was “significantly decreased”. The “tortuosity index of retinal vessels” value ([2]; OIR mice, dual injection, P17, DMSO 1.059, normoxic 1.019) was 1.026±0.001, the “number of BV tufts/flat mount” value ([2]; OIR mice, dual intravitreal injection P12 and P15, P17, n=15, DMSO 198) was 3.0±1.1 and the “vascularized regions, share of the total size of the retina” value ([2]; OIR mice, dual intravitreal injections, P17, DMSO 70%, normoxic ~99%) was ~97%. For the same molecule, the “capillary-free (avascularized) regions, share of the size of the entire retina” value ([2]; OIR mice, intravitreal 3 μl YC-1 100 μM at P12 and P15, P17, DMSO-treated 30%) was 2.2%±0.1, the retinal vaso-obliteration ([2]; OIR mice, vs obliterated areas of DMSO-treated retinas) was “significantly inhibited the retinal vaso-obliteration” and the “toxic effects on the retinal vasculature” value ([2]; mouse, in vivo) was “No obvious toxic effects”. For the same molecule, the “GFAP immunoexpression in retina” value [3] was “significant down-regulation”, the “HIF-1 immunoexpression in retina” value [3] was “significant inhibition” and the “PDGF-B immunoreactivity in retina” value [3] was “significantly inhibited”. The “VEGF immunoexpression in retina” value [3] was “significant inhibition”, the “iNOS immunoreactivities in retina” value [3] was “significantly down-regulated” and the “cell viability (DAPI exclusion)” value [4] was “comprised the majority of cells”.
